The record followed here is patent US9206130B2, “Quinoline derivatives as AXL kinase inhibitors” (Max-Planck-Gesellschaft zur Förderung der Wissenschaften …, priority 2008, dated 2015).

Molecules are shown by their SMILES. Structures can show the parent of a compound that is named as a salt.

For data set [1], the target named is T1, wild type AXL (wtAXL) receptor tyrosine kinase (Homo sapiens, UniProt P30530).
T1 construct: WtAXL cDNA was cloned into vector pLXSN(ESK) and transfected into Phoenix E packaging cells; expressed in transfected cells; host or cells: NIH3T3 N7 mouse fibroblasts, retrovirally infected (clone 22)
T1 sequence (P30530 26-894): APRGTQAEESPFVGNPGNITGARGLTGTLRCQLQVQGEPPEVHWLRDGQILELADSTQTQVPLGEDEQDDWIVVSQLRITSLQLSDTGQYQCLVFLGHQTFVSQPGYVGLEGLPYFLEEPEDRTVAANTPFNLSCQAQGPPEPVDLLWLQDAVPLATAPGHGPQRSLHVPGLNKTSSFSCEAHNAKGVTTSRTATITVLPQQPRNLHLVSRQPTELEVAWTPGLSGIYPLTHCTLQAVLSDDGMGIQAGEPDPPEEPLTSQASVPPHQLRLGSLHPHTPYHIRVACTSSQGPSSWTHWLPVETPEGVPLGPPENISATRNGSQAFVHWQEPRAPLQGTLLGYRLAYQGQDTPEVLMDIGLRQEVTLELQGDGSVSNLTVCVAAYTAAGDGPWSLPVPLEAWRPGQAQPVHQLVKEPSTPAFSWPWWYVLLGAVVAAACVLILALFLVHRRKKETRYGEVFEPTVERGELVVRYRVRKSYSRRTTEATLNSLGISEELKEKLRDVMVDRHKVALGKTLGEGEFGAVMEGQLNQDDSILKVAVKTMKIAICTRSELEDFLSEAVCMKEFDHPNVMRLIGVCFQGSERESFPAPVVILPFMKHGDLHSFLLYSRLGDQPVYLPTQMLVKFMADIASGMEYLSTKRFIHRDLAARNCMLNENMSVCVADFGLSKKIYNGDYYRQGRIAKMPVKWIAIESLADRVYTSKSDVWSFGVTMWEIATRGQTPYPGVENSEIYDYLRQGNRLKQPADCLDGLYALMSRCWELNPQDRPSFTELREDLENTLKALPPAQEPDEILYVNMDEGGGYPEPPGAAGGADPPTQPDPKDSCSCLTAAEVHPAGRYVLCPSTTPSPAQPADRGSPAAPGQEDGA
Description: NIH-3T3-AXL cellular tyrosine kinase assay (inhibition of AXL phosphorylation). As to conditions: AXL phosphorylation in NIH-3T3-AXL (clone 22) cells, serum-depleted, 2 h with compound, immunoprecipitation / anti-phosphotyrosine blot. The format is cell-based. The protocol: 3) Inhibitory Activity of Compounds on Axl Phosphorylation in NIH-3T3-AXL Cellular Tyrosine Kinase Assay
The viral supernatant was collected and used to infect target cells NIH3T3 N7. Monoclonal NIH3T3-AXL cell lines stably expressing wtAXL were generated by selecting retrovirally infected cells in medium containing puromycin (2 μg/ml) and subsequent clonal separation.
NIH-3T3-AXL Cellular Kinase Assay
Serial dilutions of compounds were added, and the cells were further incubated or 2 h. […] The clarified cell lysate (10 min at 13000 rpm at 4° C.) were used for immunoprecipitation. Equal amounts of protein were mixed with 2 μg anti-AXL polyclonal antibody (homemade) and 20 μl Protein A sepharose beads, and rotated for 6 hr at 4° C. After immunoprecipitation, the beads were washed three times with 1×HNTG (50 mM HEPES (pH 7.5), 150 mM NaCl, 10% Glycerol, 0.2% Triton X-100). The final pellet was suspended in 20 μl 2× Laemmli buffer, and boiled for 5 min at 100° C. […] The membrane was then incubated with anti-phosphotyrosine antibody (4G10) overnight at 4° C. followed by washing with 1×TBST buffer three times. After incubating membrane with HRP-conjugated anti-mouse secondary antibody for 1 hour at room temperature followed by washing with 1×TBST buffer three times, the proteins were visualized by ECL.

Turning to `Cc1cc(Oc2ccc(NS(=O)(=O)c3cccc(Br)c3)cc2)c2cc(F)ccc2n1` [Example B14, 3-Bromo-N-[4-(6-fluoro-2-methyl-quinolin-4-yloxy)-phenyl]-benzenesulfonamide], the melting point – broadly, the temperature, or range, at which the solid turns liquid – lay in the range of 183 to 184 °C. The IC50 (as a rule, the concentration that gives 50% inhibition) in data set [1] was under 1000 nM.
For `COc1cc2nccc(Oc3ccc(NS(=O)(=O)c4ccc(OC)c5ccccc45)cc3C)c2cc1OC` [Example A130, 4-Methoxy-naphthalene-1-sulfonic acid [4-(6,7-dimethoxy-quinolin-4-yloxy)-3-methyl-phenyl]-amide], in that order: 233 to 235 °C and over 10000 nM.
For `COc1cc2nccc(Oc3ccc(NS(=O)(=O)c4cc(Cl)cc(Cl)c4OC)c(C)c3)c2cc1OC` [Example A111, 3,5-Dichloro-N-[4-(6,7-dimethoxy-quinolin-4-yloxy)-2-methyl-phenyl]-2-methoxy-benzenesulfonamide], in that order: 159 to 162 °C and over 3000 nM.
`COc1cc2nccc(Oc3ccc(NS(=O)(=O)c4ccc(Cl)cc4F)c(F)c3)c2cc1OC` [Example A13, 4-Chloro-N-[4-(6,7-dimethoxy-quinolin-4-yloxy)-2-fluoro-phenyl]-2-fluoro-benzenesulfonamide]: the melting point was 218 to 219 °C. Besides, in data set [1], the IC50 was found to be 2900 nM.
For `COc1cc2nccc(Oc3ccc(NS(=O)(=O)c4ccc5c(c4)CC(=O)N5C)cc3)c2cc1OC` [Example A85, 1-Methyl-2-oxo-2,3-dihydro-1H-indole-5-sulfonic acid [4-(6,7-dimethoxy-quinolin-4-yloxy)-phenyl]-amide], in that order: 119 to 122 °C and over 3000 nM.
Molecule `COc1cc(S(=O)(=O)Nc2ccc(Oc3ccnc4cc(OC)c(OC)cc34)c(OC)c2)ccc1F` [Example A121, N-[4-(6,7-Dimethoxy-quinolin-4-yloxy)-3-methoxy-phenyl]-4-fluoro-3-methoxy-benzenesulfonamide] yielded a melting point of 109 to 110 °C. For the same molecule, in data set [1], the IC50 was over 10000 nM.
For `CCCCS(=O)(=O)Nc1ccc(Oc2ccnc3cc(OC)c(OC)cc23)cc1F` [Example A71, Butane-1-sulfonic acid [4-(6,7-dimethoxy-quinolin-4-yloxy)-2-fluoro-phenyl]-amide], in that order: 164 to 166 °C and over 3000 nM.
Molecule `COc1cc2nccc(Oc3ccc(NS(=O)(=O)c4cc(F)ccc4F)cc3OC)c2cc1OC` [Example A139, N-[4-(6,7-Dimethoxy-quinolin-4-yloxy)-3-methoxy-phenyl]-2,5-difluoro-benzenesulfonamide] returned a melting point of 222 to 224 °C. In data set [1], the 50% inhibitory concentration (IC50) turned out to be 2200 nM.
For `COc1cc2nccc(Oc3ccc(NS(=O)(=O)c4ccco4)c(F)c3)c2cc1OC` [Example A22, Furan-2-sulfonic acid [4-(6,7-dimethoxy-quinolin-4-yloxy)-2-fluoro-phenyl]-amide], in that order: 210 to 212 °C and 9600 nM.
For `Cc1cc(Oc2ccc(NS(=O)(=O)c3cc(Cl)cc(Cl)c3O)cc2)c2cc(F)ccc2n1` [Example B22, 3,5-Dichloro-N-[4-(6-fluoro-2-methyl-quinolin-4-yloxy)-phenyl]-2-hydroxy-benzenesulfonamide], in that order: 203 to 205 °C and 7000 nM.
Regarding `COc1cc2nccc(Oc3ccc(NS(=O)(=O)c4ccc(Br)c(Cl)c4)cc3F)c2cc1OC` [Example A124, 4-Bromo-3-chloro-N-[4-(6,7-dimethoxy-quinolin-4-yloxy)-3-fluoro-phenyl]-benzenesulfonamide], the melting point is 144 to 147 °C. Also, the IC50 in data set [1] was over 3000 nM.
For `COc1cc2nccc(Oc3ccc(NS(=O)(=O)c4ccc(OC)c5ccccc45)c(C)c3)c2cc1OC` [Example A150, 4-Methoxy-naphthalene-1-sulfonic acid [4-(6,7-dimethoxy-quinolin-4-yloxy)-2-methyl-phenyl]-amide], in that order: 216 to 217 °C and over 10000 nM.
Molecule `COc1cc2c(Oc3ccc(NS(=O)(=O)c4c(F)cccc4F)cc3F)ccnc2cc1OCCCN1CCCC(C)C1` (stereo not drawn) [Example D32, 2,6-Difluoro-N-(3-fluoro-4-{6-methoxy-7-[3-(3-methyl-piperidin-1-yl)-propoxy]-quinolin-4-yloxy}-phenyl)-benzenesulfonamide] showed a melting point of 117 to 119 °C. For the same molecule, the 50% inhibitory concentration (IC50) in data set [1] is 42 nM.
The molecule `COc1cc2nccc(Oc3ccc(NS(=O)(=O)c4cccc(-c5ccccc5)c4)cc3)c2cc1OC` [Example A86, Biphenyl-3-sulfonic acid [4-(6,7-dimethoxy-quinolin-4-yloxy)-phenyl]-amide] registered a melting point of 197 to 200 °C. The IC50 in data set [1] was over 1000 nM.
The molecule `COc1cc2c(Oc3ccc(NS(=O)(=O)c4ccccc4OC(F)(F)F)cc3F)ccnc2cc1OCCCNC(=O)OC(C)(C)C` [Example D16, (3-{4-[2-Fluoro-4-(2-trifluoromethoxy-benzenesulfonylamino)-phenoxy]-6-methoxy-quinolin-7-yloxy}-propyl)-carbamic acid tert-butyl ester] yielded a melting point of 181 to 183 °C. In data set [1], the half-inhibitory concentration (IC50) worked out at 271 nM.
As to `COc1cc2nccc(Oc3ccc(NS(=O)(=O)c4cccc5ccccc45)cc3F)c2cc1OC` [Example A100, Naphthalene-1-sulfonic acid [4-(6,7-dimethoxy-quinolin-4-yloxy)-3-fluoro-phenyl]-amide], the melting point was 118 to 120 °C. In data set [1], the half-maximal inhibitory concentration (IC50) came to 740 nM.
In turn, `COc1cc2nccc(Oc3ccc(NS(=O)(=O)c4cccc(Oc5ccccc5)c4)cc3OC)c2cc1OC` [Example A120, N-[4-(6,7-Dimethoxy-quinolin-4-yloxy)-3-methoxy-phenyl]-3-phenoxy-benzenesulfonamide] returned a melting point of 106 to 107 °C. In addition, the concentration for half-maximal inhibition (IC50) in data set [1] was over 10000 nM.
`COc1cc2c(Oc3ccc(NS(=O)(=O)c4ccccc4C#N)cc3F)ccnc2cc1OCCCN1CCCC(C)C1` (stereo not drawn) [Example D31, 2-Cyano-N-(3-fluoro-4-{6-methoxy-7-[3-(3-methyl-piperidin-1-yl)-propoxy]-quinolin-4-yloxy}-phenyl)-benzenesulfonamide] displayed a melting point of 131 to 132 °C. The IC50 in data set [1] amounted to 323 nM.
`COc1cc2nccc(Oc3ccc(NS(=O)(=O)c4cc(Cl)cc(Cl)c4)c(F)c3)c2cc1OC` [Example A43, 3,5-Dichloro-N-[4-(6,7-dimethoxy-quinolin-4-yloxy)-2-fluoro-phenyl]-benzenesulfonamide]: the melting point lay in the range of 240 to 242 °C. In addition, the IC50 in data set [1] is under 1000 nM.
For `COc1ccc(S(=O)(=O)Nc2ccc(Oc3ccnc4cc(OC)c(OC)cc34)cc2)cc1Br` [Example A74, 3-Bromo-N-[4-(6,7-dimethoxy-quinolin-4-yloxy)-phenyl]-4-methoxy-benzenesulfonamide], in that order: 211 to 212 °C and over 1000 nM.
Turning to `COc1cc2c(Oc3ccc(NS(=O)(=O)c4ccccc4OC(F)(F)F)cc3F)ccnc2cc1OCCCN` [Example D15, N-{4-[7-(3-Amino-propoxy)-6-methoxy-quinolin-4-yloxy]-3-fluoro-phenyl}-2-trifluoromethoxy-benzenesulfonamide hydrochloride], the IC50 in data set [1] was 364 nM.
As to `COc1cc2c(Oc3ccc(NS(=O)(=O)c4cccc(-c5ccccc5)c4)cc3F)ccnc2cc1OCCCN` [Example D03, Biphenyl-3-sulfonic acid {4-[7-(3-amino-propoxy)-6-methoxy-quinolin-4-yloxy]-3-fluoro-phenyl}-amide hydrochloride], in data set [1], the IC50 amounted to 837 nM.
